Measured values from patent publication US20250221989A1, “PHARMACEUTICAL COMPOSITION, USE THEREOF, AND METHOD FOR TREATING CANCER” (Genfleet Therapeutics (Shanghai) Inc., priority 2022, published 2025).
Marks after values point to notes of the source that are not given here.

Experiments:
[1] = system: Human rectal adenocarcinoma cells SW837; assay: Cell survival rate of SW837 cells under drug combination, Cell Titer-Glo; assay type: cell-based; conditions: 120 h
Description: (§1) The cell survival rate (%) after the drug combinations was calculated by the formula: cell survival rate=(1−(RLU of DMSO control−RLU of treatment)/(RLU of DMSO control−RLU of blank control))×100%. The DMSO control was a vehicle control with no drugs, and the blank control was a medium control with no drugs and vehicles.
(§2) The value corresponding to the coordinates is the cell survival rate of the combination groups with corresponding concentrations of the two drugs.
(§3) The effect of the drug combinations on the tumor cells was evaluated by statistical methods. The statistical software used was R systems, and the statistical models were Bliss, HSA, Loewe, and ZIP. A synergic value>5 indicates a synergic effect, a synergic value>10 indicates a significant synergic effect, a synergic value<−5 indicates an antagonistic effect, and a synergic value<−10 indicates a significant antagonistic effect. The final efficacy of the drug combinations was further judged by the synergic value.
(§4) Human rectal adenocarcinoma cells SW837 were plated into a 384-well plate at 800 cells/well. […] After 120 h, the cell viability was measured by Cell Titer-Glo method. The Cell Titer-Glo reagent was added at 30 μL/well. The plate was shaken for 2 min and left to stand for 10 min. The RLU value was read on the Envision system.
as §4

[2] = system: Human non-small cell lung cancer cells LU99; assay: Cell survival rate of LU99 cells under drug combination, Cell Titer-Glo; assay type: cell-based; conditions: 120 h
Description: as §1, §2, §3
as §4, with “non-small cell lung cancer” for “rectal adenocarcinoma”, “LU99” for “SW837”, “600” for “800”
as §4, with “non-small cell lung cancer” for “rectal adenocarcinoma”, “LU99” for “SW837”, “600” for “800”

[3] = system: NCI-H2122 human non-small cell lung cancer model; assay: In vivo anti-tumor evaluation in NCI-H2122 human non-small cell lung cancer model; design: species or system BALB/c nude mice
Description: During the study, the health of the animals was observed daily. If there was a 10% weight loss in the animals, the administration dose was halved; if there was a 15% weight loss, the […] until a normal body weight was restored; or if the tumor volume in the animals exceeded 2,000 mm^3, the mouse was euthanized immediately. If the health condition met the following criteria, euthanasia was performed by the veterinarian:
BALB/c nude mice, aged 6-8 weeks, female, purchased from Beijing Vital River Laboratory Animal Technology Co., Ltd., Certificate No. 20170011008676, and housed in an SPF-grade environment.
NCI-H2122 cells were cultured in an RPMI 1640 medium containing 10% of FBS and 1% of penicillin-streptomycin in an incubator at 37° C. and 5% CO2. […] When the cells were in the logarithmic growth phase and the confluence reached […], the cells were collected and counted. The cells were collected and adjusted to a final concentration of 2.0×10^6 cells/mL. Mice were grafted subcutaneously at the right dorsal region in a volume of 0.15 mL/3×10^5 cells/mouse. When the tumors grew to an average size of about 242 mm^3 (D5 after grafting), 32 tumor-bearing mice were selected, randomized into 4 groups of 8 mice each as per the tumor volume and the body weight, and treated according to the administration regimen shown in Table 1. The dose in mice was 10 mL/kg. The mice were weighed on an electronic balance twice weekly and the tumor volume was measured with a vernier caliper twice weekly. The study was ended on D17 after grafting, and the mice were euthanized after tumor volume measurement.
Tumor volume (TV)=(L×W^2)/2, where L denotes the long diameter of the tumor, and W is the short diameter of the tumor.
TWI=(1−TWtreatment/Dx/TWcontrol/Dx)×100%, where TWcontrol denotes the average tumor weight (g) of the control group, and TWtreatment denotes the average tumor weight (g) of the treatment group.
RCBW (%)=(BWi−BW0)/BW0×100%, where BWi is the body weight of a mouse on a specific day and BW0 is the body weight of the mouse at the baseline.
All experimental data analysis and graphing were performed using GraphPad Prism software (GraphPad Software). Tumor volumes and the body weights of the animals in all groups were statistically compared using two-way ANOVA, Dunnett's multiple comparisons test. Tumor weights of the groups at the endpoint were statistically compared using one-way ANOVA, Dunnett's multiple comparisons test. P<0.05 denotes a statistically significant difference. The tumor volume and weight and body weight of animals are expressed by mean±standard error (SEM).

[4] = system: mouse colon cancer CT26 KRAS G12C KI cell subcutaneous graft tumor model; assay: In vivo anti-tumor evaluation in mouse CT26 KRASG12C KI subcutaneous graft tumor model
Description: The animals and the main evaluation indexes were the same as those of Example 8.
Preparation: the compound of the formula (II) was prepared in a vehicle of 5% DMSO+10% Solutol HS 15+85% (6% HP—β-CD); mPD1 was prepared in PBS.
On day 12 after cell inoculation (DO), the grouping and treatment were started after the mean tumor volume reached 69 mm^3. 32 tumor-bearing mice were selected, randomized into 4 groups of 8 mice each as per the tumor volume and the body weight, and treated according to the administration regimen shown in Table 3. The administration volume in mice was 10 mL/kg. The mice were weighed on an electronic balance twice weekly and the tumor volume was measured with a vernier caliper twice weekly.
The main evaluation indexes were tumor volume, TGI, TWI, and RCBW.

[5] = system: Human non-small cell lung cancer cells SW1573; assay: Cell survival rate of SW1573 cells under drug combination, Cell Titer-Glo; assay type: cell-based; conditions: 120 h
Description: as §1, §2, §3
(§5) After 120 h, the cell viability was measured by Cell Titer-Glo method. The Cell Titer-Glo reagent was added at 30 μL/well. The plate was shaken for 2 min and left to stand for 10 min. The RLU value was read on the Envision system.

[6] = system: Human non-small cell lung cancer cells NCI-H2122; assay: Cell survival rate of NCI-H2122 cells under drug combination, Cell Titer-Glo; assay type: cell-based; conditions: 120 h
Description: as §1
The value corresponding to the coordinates is the cell survival rate of the combination groups with corresponding concentrations of the two drugs. For example, in FIG. 1, when the horizontal coordinate read is 0 nM and the vertical coordinate read is 10.03 nM, the value corresponding to the coordinates is 86.1.
as §3
Human non-small cell lung cancer cells NCI-H2122 were plated into a 384-well plate at 600 cells/well. […] After 120 h, the cell viability was measured by Cell Titer-Glo method. […] The RLU value was read on the Envision system.

[7] = system: Human rectal adenocarcinoma cells SW1463; assay: Cell survival rate of SW1463 cells under drug combination, Cell Titer-Glo; assay type: cell-based; conditions: 120 h
Description: as §1, §2, §3, §5

[8] = Day 17, compound of formula (II) 10 mpk p.o. q.d., cetuximab 1 mpk i.p. biw
[9] = after 12 days treatment, mean ± SEM, compound of formula (II) 10 mpk p.o. q.d., cetuximab 1 mpk i.p. biw
[10] = Day 33, compound of formula (II) 3 mpk (D 0-9) & 1 mpk (D 10-20) p.o. q.d., mPD1 10 mpk i.p. biw
[11] = after 21 days treatment, compound of formula (II) 3 mpk (D 0-9) & 1 mpk (D 10-20) p.o. q.d., mPD1 10 mpk i.p. biw

## Cc1nc(NC(=O)N2CCC[C@H]2C(N)=O)sc1-c1ccnc(C(C)(C)C(F)(F)F)c1 [BYL719, Alpelisib, reference compound]
[1]; SW837, Example 2, 10000 nM BYL719 alone
  cell survival rate: 62.9%
[2]; LU99, Example 1, 1000 nM BYL719 alone
  cell survival rate: 62.6%

## C=CC(=O)N1CCN2c3c(c(=O)n(-c4c(C)ccnc4C(C)C)c4nc(-c5c(O)cccc5F)c(Cl)cc34)N(C)C(=O)[C@H]2C1 [Compound of formula (II), (4aR,8R)-3-acryloyl-11-chloro-10-(2-fluoro-6-hydroxyphenyl)-8-(2-isopropyl-4-methylpyridin-3-yl)-6-methyl-2,3,4,4a,6,8-hexahydro-1H-pyrazino[1′,2′: 4,5] pyrazino[2,3-c][1,8]naphthyridine-5,7-dione]
[3]; [8]
  TGI: 73.81%
  TWI: 49.37%
[3]; [9]
  Body weight After grafting Day 17: 20.97 ± 0.38 g
  Tumor volume After grafting Day17: 479.14 ± 58.84*** mm^3
[3]; baseline, mean ± SEM
  Body weight After grafting Day 5: 21.16 ± 0.47 g
[3]; endpoint, mean ± SEM, compound of formula (II) 10 mpk p.o. q.d., cetuximab 1 mpk i.p. biw
  Tumor weight After grafting Day 17: 0.30 ± 0.04 g
[4]; CT26 KRAS G12C KI subcutaneous graft tumor model
  tumor inhibitory effect (in words): mild tumor inhibitory effects
[4]; [10]
  TGI: 46.74%
  TWI: 35.38%
[4]; [11]
  Body weight After grafting Day 33: 22.76 ± 0.37 g
  Tumor volume Day 33 after grafting: 1065.38 ± 251.12 mm^3
[4]; after 21 days treatment, compound of formula (II) 3 mpk (D 0-9) & 1 mpk (D 10-20) p.o. q.d., mPD1 10 mpk i.p. biw, listed as compound of formula (II)
  Tumor volume Day 33 after grafting: 1,065 mm^3
[4]; baseline at grouping (D0), mean ± SEM, n=8
  Tumor volume After grafting Day 12: 68.75 ± 6.65 mm^3
[4]; baseline, mean ± SEM
  Body weight Day 12 after grafting: 21.29 ± 0.29 g
[4]; endpoint, compound of formula (II) 3 mpk (D 0-9) & 1 mpk (D 10-20) p.o. q.d., mPD1 10 mpk i.p. biw
  Tumor weight After grafting Day 33: 1.84 ± 1.12 g
[4]; mean tumor volume at end of study, compound of formula (II) 3 mpk (D 0-9) & 1 mpk (D 10-20) p.o. q.d., mPD1 10 mpk i.p. biw
  T/C: 54.92%
[5]; SW1573, Example 6, 100 nM compound of formula (II) alone
  cell survival rate: 86.4%
[1]; SW837, Example 2, 31.69 nM compound of formula (II) alone
  cell survival rate: 60.2%
[1]; SW837, Example 4, 31.69 nM compound of formula (II) alone
  cell survival rate: 56.2%
[2]; LU99, Example 1, 100 nM compound of formula (II) alone
  cell survival rate: 83%
[2]; LU99, Example 3, 100 nM compound of formula (II) alone
  cell survival rate: 83.8%
[2]; LU99, FIG. 1, coordinates 0 nM / 10.03 nM, stated as compound of formula (II) alone (BYL719 0 nM)
  cell survival rate: 86.1%
[6]; NCI-H2122, Example 7, 3.17 nM compound of formula (II) alone
  cell survival rate: 60.7%
[7]; SW1463, Example 5, 31.69 nM compound of formula (II) alone
  cell survival rate: 43.2%

## CS(=O)(=O)N1CCN(Cc2cc3nc(-c4cccc5[nH]ncc45)nc(N4CCOCC4)c3s2)CC1 [GDC0941, Pictilisib, reference compound]
[5]; SW1573, Example 6, 3164 nM GDC0941 alone
  cell survival rate: 46%
[1]; SW837, Example 4, 1000 nM GDC0941 alone
  cell survival rate: 67.6%
[2]; LU99, Example 3, 100 nM GDC0941 alone
  cell survival rate: 85.4%
[7]; SW1463, Example 5, 1000 nM GDC0941 alone
  cell survival rate: 64.6%

## CC1(C)CC[C@H](Nc2ncc(C(F)(F)F)c(-c3c[nH]c4c(P(C)(C)=O)c(C#N)ccc34)n2)CN1 [SY-5609, reference compound]
[6]; NCI-H2122, Example 7, 31.69 nM SY-5609 alone
  cell survival rate: 57.5%
